Reference: patent publication US20240317723A1, “SUBSTITUTED AMINO AZA-HETEROARYL COMPOUNDS AS INHIBITORS OF THE HAEMATOPOIETIC PROGENITOR KINASE 1 (HPK1)” (priority 2021, published 2024)

Legend:
Lck (h) = Lck (h) (Homo sapiens, UniProt P06239); experiment: Lck Human STE Kinase Enzymatic Radiometric Assay; assay type: biochemical; settings: for IC50: radiometric, [gamma-33P]-ATP, Cdc2 peptide substrate, read-out: Lck IC50, nM Range*; for Selectivity: selectivity for inhibition of HPK1 vs Lck
Method: (b) Lck Human STE Kinase Enzymatic Radiometric Assay
Lck (h) is incubated with 50 mM Tris pH 7.5, 0.1 mM EGTA, 0.1 mM Na3VO4, 250 uM KVEKIGEGTYGVVYK (Cdc2 peptide), 10 mM MgAcetate and [gamma-33P]-ATP (specific activity and concentration as required). The reaction is initiated by the addition of the Mg/ATP mix. After incubation for 40 minutes at room temperature, the reaction is stopped by the addition of phosphoric acid to a concentration of 0.5%. 10 uL of the reaction is then spotted onto a P30 filtermat and washed four times for 4 minutes in 0.425% phosphoric acid and once in methanol prior to drying and scintillation counting. For more details on the kinase assay procedures see: Gao, Y. et. al.; Biochem J., 451 (2): 313-328, 2013.
In some embodiments the presence of substituents on monocyclic Cy^2 rings or when Cy^2 is a bicyclic ring (unsubstituted or substituted) provides compounds with improved selectivity for inhibition of HPK1 vs Lck (see, for example, Table 3 and Table 4).

[1] = biological target: T1, Recombinant (1-346) HPK1 (h) (Homo sapiens, UniProt Q92918); experiment: HPK1 Human STE Kinase Enzymatic Radiometric Assay; assay type: biochemical; settings: [gamma-33P]-ATP, myelin basic protein substrate, read-out: HPK1 IC50 nM Range*
T1 construct: Recombinant (1-346) HPK1 (h) is incubated with 8 mM MOPS pH 7.0
T1 sequence (Q92918 1-346): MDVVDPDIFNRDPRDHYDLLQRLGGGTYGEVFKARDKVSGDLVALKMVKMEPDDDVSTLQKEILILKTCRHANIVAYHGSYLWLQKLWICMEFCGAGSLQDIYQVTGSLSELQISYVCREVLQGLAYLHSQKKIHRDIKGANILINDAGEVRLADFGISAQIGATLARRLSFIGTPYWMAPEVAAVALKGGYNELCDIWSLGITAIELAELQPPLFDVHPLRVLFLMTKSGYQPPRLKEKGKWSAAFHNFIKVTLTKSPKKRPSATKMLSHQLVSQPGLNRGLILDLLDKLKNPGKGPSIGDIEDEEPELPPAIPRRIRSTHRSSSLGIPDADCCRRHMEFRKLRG
Method: (a) HPK1 Human STE Kinase Enzymatic Radiometric Assay
A stock solution of 10 mM of test compound is prepared in DMSO. The compound plate was prepared by 3-fold and 9-point serial dilutions. Recombinant (1-346) HPK1 (h) is incubated with 8 mM MOPS pH 7.0, 0.2 mM EDTA, 0.33 mg/mL myelin basic protein, 10 mM MgAcetate and [gamma-33P]-ATP (specific activity and concentration as required). The reaction is initiated by the addition of the Mg/ATP mix. After incubation for 40 minutes at RT, the reaction is stopped by the addition of phosphoric acid to a concentration of 0.5%. 10 uL of the reaction is then spotted onto a P30 filtermat and washed four times for 4 minutes in 0.425% phosphoric acid and once in methanol prior to drying and scintillation counting. For more details of kinase assay protocols, see: Gao, Y. et. al.; Biochem J. 451 (2): 313-328, 2013.

Lck (h), sequence (P06239 whole entry): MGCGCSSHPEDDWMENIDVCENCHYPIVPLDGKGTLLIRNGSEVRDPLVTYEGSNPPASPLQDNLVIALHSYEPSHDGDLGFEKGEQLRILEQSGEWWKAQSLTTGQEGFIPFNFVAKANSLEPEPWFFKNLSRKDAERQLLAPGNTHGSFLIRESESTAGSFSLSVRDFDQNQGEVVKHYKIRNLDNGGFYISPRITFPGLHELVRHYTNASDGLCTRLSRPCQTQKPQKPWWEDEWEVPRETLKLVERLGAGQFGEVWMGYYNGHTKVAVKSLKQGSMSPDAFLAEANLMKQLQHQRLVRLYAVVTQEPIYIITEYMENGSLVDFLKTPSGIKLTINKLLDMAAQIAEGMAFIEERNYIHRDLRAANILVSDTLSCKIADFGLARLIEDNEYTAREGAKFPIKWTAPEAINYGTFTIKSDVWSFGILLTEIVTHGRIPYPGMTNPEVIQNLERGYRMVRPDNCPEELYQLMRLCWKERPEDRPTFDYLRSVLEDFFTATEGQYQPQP

SMILES	IC50 (Lck (h))	IC50 [1]	Selectivity (Lck (h))
C[C@@H]1CCCN1c1ccc(-c2cnc(N)c(-c3ccc4c(c3)CCNC4=O)n2)c(F)c1 [Example I-43, (R)-6-(3-amino-6-(2-fluoro-4-(2-methylpyrrolidin-1-yl)phenyl)pyrazin-2-yl)-3,4-dihydroisoquinolin-1(2H)-one]	21 to 200 nM	6 to 10 nM	
CC(C)[C@H]1CN(c2ccc(-c3cnc(N)c(-c4ccc5c(c4)CCNC5=O)n3)c(F)c2F)CCO1 [Example I-16, (S)-6-(3-amino-6-(2,3-difluoro-4-(2-isopropylmorpholino)phenyl)pyrazin-2-yl)-3,4-dihydroisoquinolin-1(2H)-one]	21 to 200 nM	0.1 to 5 nM	
CC(C)[C@@H]1CN(c2ccc(-c3cnc(N)c(-c4ccc5c(c4)CCNC5=O)n3)c(F)c2F)CCO1 [Example I-15, (R)-6-(3-amino-6-(2,3-difluoro-4-(2-isopropylmorpholino)phenyl)pyrazin-2-yl)-3,4-dihydroisoquinolin-1(2H)-one]	21 to 200 nM	0.1 to 5 nM	
Cc1cc2cc(-c3nc(-c4ccc(C5CCOCC5)c(CN(C)C)c4)cnc3N)cc(F)c2c(=O)[nH]1 [II-4, 6-(3-amino-6-(3-((dimethylamino)methyl)-4-(tetrahydro-2H-pyran-4-yl)phenyl)pyrazin-2-yl)-8-fluoro-3-methylisoquinolin-1(2H)-one]		0.1 to 5 nM	
CC(C)[C@@H]1CN(c2ccc(-c3cnc(N)c(-c4cc5c(cc4F)C(=O)NCC5)n3)c(F)c2F)CCO1 [Example I-31, (R)-6-(3-amino-6-(2,3-difluoro-4-(2-isopropylmorpholino)phenyl)pyrazin-2-yl)-7-fluoro-3,4-dihydroisoquinolin-1(2H)-one]	21 to 200 nM	0.1 to 5 nM	
CN(C)C1CCN(c2ccc(-c3cnc(N)c(-c4ccc5c(c4)CCNC5=O)n3)c(F)c2)C1 (centres unmarked) [Example I-20, 6-(3-amino-6-(4-(3-(dimethylamino)pyrrolidin-1-yl)-2-fluorophenyl)pyrazin-2-yl)-3,4-dihydroisoquinolin-1(2H)-one]	11 to 20 nM	0.1 to 5 nM	
CC(C)[C@H]1CN(c2ccc(-c3cnc(N)c(-c4cc5c(cc4F)C(=O)NCC5)n3)cc2)CCO1 [Example I-28, (S)-6-(3-amino-6-(4-(2-isopropylmorpholino)phenyl)pyrazin-2-yl)-7-fluoro-3,4-dihydroisoquinolin-1(2H)-one]	11 to 20 nM	0.1 to 5 nM	
Cc1cc2cc(-c3nc(-c4ccc(N5CCN(C)CC5)cc4)cnc3N)ccc2c(=O)[nH]1 [Example I-51, 6-(3-amino-6-(4-(4-methylpiperazin-1-yl)phenyl)pyrazin-2-yl)-3-methylisoquinolin-1(2H)-one]		0.1 to 5 nM	
CC(C)N1C[C@@H]2C[C@]2(c2ccc(-c3cnc(N)c(-c4cc5c(cc4F)C(=O)NCC5)n3)cc2)C1 [Example I-48, 6-(3-amino-6-(4-((1S,5R)-3-isopropyl-3-azabicyclo[3.1.0]hexan-1-yl)phenyl)pyrazin-2-yl)-7-fluoro-3,4-dihydroisoquinolin-1(2H)-one]	11 to 20 nM	0.1 to 5 nM	
Cc1nc2cc(-c3nc(-c4ccc(N5CCN(C)CC5)cc4)cnc3N)ccc2c(=O)[nH]1 [Example I-57, 7-(3-amino-6-(4-(4-methylpiperazin-1-yl)phenyl)pyrazin-2-yl)-2-methylquinazolin-4(3H)-one]		6 to 10 nM	
CN(C)Cc1cc(C2CCOCC2)ccc1-c1cnc(N)c(-c2cc3c(cc2F)C(=O)NCC3)n1 [II-1, 6-(3-amino-6-(2-((dimethylamino)methyl)-4-(tetrahydro-2H-pyran-4-yl)phenyl)pyrazin-2-yl)-7-fluoro-3,4-dihydroisoquinolin-1(2H)-one]		6 to 10 nM	
Cc1[nH]c(=O)c2c(F)cc(-c3nc(-c4ccc(C5CCOCC5)c(CN(C)C)c4)cnc3N)cc2c1F [II-5, 6-(3-amino-6-(3-((dimethylamino)methyl)-4-(tetrahydro-2H-pyran-4-yl)phenyl)pyrazin-2-yl)-4,8-difluoro-3-methylisoquinolin-1(2H)-one]		0.1 to 5 nM	
Cc1c[nH]c(=O)c2cc(F)c(-c3nc(-c4ccc(C5CCOCC5)c(CN(C)C)c4)cnc3N)cc12 [II-2, 6-(3-amino-6-(3-((dimethylamino)methyl)-4-(tetrahydro-2H-pyran-4-yl)phenyl)pyrazin-2-yl)-7-fluoro-4-methylisoquinolin-1(2H)-one]		0.1 to 5 nM	
CN1CCN(c2ccc(-c3cc(-c4ccc5c(c4)CCNC5=O)c(N)nn3)cc2)CC1 [Example I-49, 6-(3-amino-6-(4-(4-methylpiperazin-1-yl)phenyl)pyridazin-4-yl)-3,4-dihydroisoquinolin-1(2H)-one]		21 to 200 nM	

The next lines start with the values.

IC50 (Lck (h))	IC50 [1]	Selectivity (Lck (h))	SMILES
11 to 20 nM	0.1 to 5 nM		CC(C)[C@@H]1CN(c2ccc(-c3cnc(N)c(-c4ccc5c(c4)CCNC5=O)n3)cc2)CCO1 [Example I-7, (R)-6-(3-amino-6-(4-(2-isopropylmorpholino)phenyl)pyrazin-2-yl)-3,4-dihydroisoquinolin-1(2H)-one]
	0.1 to 5 nM		CCN1CCN(c2ccc(-c3cnc(N)c(-c4ccc5c(c4)CCNC5=O)n3)cc2)CC1 [Example I-56, 6-(3-amino-6-(4-(4-ethylpiperazin-1-yl)phenyl)pyrazin-2-yl)-3,4-dihydroisoquinolin-1(2H)_-one]
11 to 20 nM	0.1 to 5 nM		C[C@@H]1CCCN1c1ccc(-c2cnc(N)c(-c3ccc4c(c3)CCNC4=O)n2)cc1 [Example I-42, (R)-6-(3-amino-6-(4-(2-methylpyrrolidin-1-yl)phenyl)pyrazin-2-yl)-3,4-dihydroisoquinolin-1(2H)-one]
	0.1 to 5 nM		C[C@@H]1CN(C)CCN1c1ccc(-c2cnc(N)c(-c3ccc4c(c3)CCNC4=O)n2)cc1 [Example I-54, (R)-6-(3-amino-6-(4-(2,4-dimethylpiperazin-1-yl)phenyl)pyrazin-2-yl)-3,4-dihydroisoquinolin-1(2H)-one]
	0.1 to 5 nM		C[C@@H]1CN(c2ccc(-c3cnc(N)c(-c4ccc5c(c4)CCNC5=O)n3)cc2)C[C@H](C)N1C [Example I-55, 6-(3-amino-6-(4-((3R,5S)-3,4,5-trimethylpiperazin-1-yl)phenyl)pyrazin-2-yl)-3,4-dihydroisoquinolin-1(2H)-one]
		405	Nc1ncc(-c2ccc(N3CCOCC3)cc2F)nc1-c1ccc2c(c1)CCNC2=O [Comparator 4, 6-(3-amino-6-(2-fluoro-4-morpholinophenyl)pyrazin-2-yl)-3,4-dihydroisoquinolin-1(2H)-one, reference compound]
	0.1 to 5 nM		CC(C)N1CCN(c2ccc(-c3cnc(N)c(-c4ccc5c(c4)CCNC5=O)n3)cc2)[C@H](C)C1 [Example I-53, (R)-6-(3-amino-6-(4-(4-isopropyl-2-methylpiperazin-1-yl)phenyl)pyrazin-2-yl)-3,4-dihydroisoquinolin-1(2H)-one]
		930	Nc1ncc(-c2ccc(N3CCOCC3)c(F)c2F)nc1-c1ccc2c(c1)CCNC2=O [Comparator 2, 6-(3-amino-6-(2,3-difluoro-4-morpholinophenyl)pyrazin-2-yl)-3,4-dihydroisoquinolin-1(2H)-one, reference compound]
		31	Nc1ncc(-c2ccc(N3CCOCC3)cc2)nc1-c1ccc2c(c1)CCNC2=O [Comparator 1, 6-(3-amino-6-(4-morpholinophenyl)pyrazin-2-yl)-3,4-dihydroisoquinolin-1(2H)-one, reference compound]
